# According to patent US10472341B2, “Bicyclic tetrahydrothiazepine derivatives useful for the treatment of neoplastic and/or infectious diseases” (APEIRON BIOLOGICS AG, priority 2015, dated 2019):
# How the values were obtained:
# Type in all cases: cell-based, human
# [1] = test system: CD4 T cells; test: TCR-mediated activation of isolated CFSE-labeled CD4 T cells (anti-CD3/anti-CD28): cytokines, proliferation, CD25; conditions: for CD25 expression [% positive cells] Average / Cell Proliferation [Cell divisions/cell] Average / IFN-gamma production [ng/ml] Average / IL-2 production [ng/ml] Average / TNF-alpha production [ng/ml] Average: anti-CD3/anti-CD28
# Experimental: (§1) • Buffy coat content was transferred to sterile plastic bottle and filled up to 480 ml with PBS, and distributed equally to 16×50 ml tubes (30 ml/tube) • Underlayed with ˜11 ml Lymphoprep and centrifuged 20 min (2200 rpm) • The interphase containing lymphocytes was taken off with transfer pipette, cells were washed twice with PBS and pooled to one tube to determine cell count (Coulter Diff ACT) Isolation of Immune Cell Subfractions from PBMCs by MACS • PBMCs were resuspended in MACS buffer (80 μl MACS-buffer/10^7 cells) and cells were isolated with Auto-MACS device using respective kits following manufacturer's recommendations TCR Stimulation and Measurement of T Cell Activation
# (§2) Isolated T cells were plated in Xvivo medium at 1.5*10 ^5 cells per in 96 well culture plates and TCR-stimulated with anti-CD3/28 mAbs in the presence of compound as indicated. Cytokine production was determined at 24 h or 48 h following TCR stimulation in cell culture supernatants using commercially available ELISA kits (BD and eBioscience) as recommended by the manufacturer. T cell proliferation and CD25 expression (CD25-PC5 reagent purchased from Beckman Coulter) was determined by flow cytometry (Beckman-Coulter FC500) and analysed with Kaluza Software. For measurement of CD69 expression, isolated CD4 and CD8 T cells were plated in Xvivo medium at […] per in 96 well culture plates and TCR-stimulated with anti-CD3/28 mAbs in the presence of compound. CD69 expression was determined at 24 h following TCR stimulation by flow cytometry (CD4eF450, CD8APCeF780 and CD69-PC7 reagent purchased from eBioscience) and analysed with Kaluza Software.
# Isolated CD4 T cells were CFSE-labeled and stimulated with anti-CD3 and anti-CD28 antibodies.
# [2] = test system: CD8 T cells; test: Reactivity of isolated CFSE-labeled CD8 T cells to TCR stimulation (anti-CD3/anti-CD28): cytokines, proliferation, CD25; conditions: for CD25 expression [% positive cells] Average / Cell Proliferation [Cell divisions/cell] Average / IFN-gamma production [ng/ml] Average / IL-2 production [ng/ml] Average / TNF-alpha production [ng/ml] Average: anti-CD3/anti-CD28
# Experimental: as §1, §2
# Isolated CD8 T cells were CFSE-labeled and stimulated with anti-CD3 and anti-CD28 antibodies.
# [3] = test system: CD8 T cells; test: CD8 T cell viability (number of living cells) with or without M21 cells
# Experimental: Isolated PBMCs, NK cells or CD8 positive cells were plated in Xvivo medium at 1.5*10^5 cells per in 96 well culture plates in the presence of 0.3*10^4 tumor cells where indicated. Cytokine secretion was determined by ELISA, immune cell activation (using Beckman-Coulter Abs CD25-PC5, CD69-PC7), cell viability and numbers by flow cytometry (Beckman-Coulter FC500 or Gallios) using 7-AAD exclusion as criterion for living cells. CD8-positive immune cells were isolated from PBMCs and were incubated with and without compound example 67, either alone or in co-culture with M21 melanoma cells.
smiles,measurement,setting,value
"CCCCNC(=O)c1ccc2c(c1)N(Cc1ccc(OC(F)(F)F)cc1)C(=O)[C@@H](N)CS2(=O)=O.Cl [Example 67, (3R)-3-amino-N-butyl-1,1,4-trioxo-5-{[4-(trifluoromethoxy)phenyl]methyl}-2,3,4,5-tetrahydro-1λ^6,5-benzothiazepine-7-carboxamide hydrochloride]",CD25 expression [% positive cells] Average,[1]; 0.05 μM,47.88 % positive cells
same,Cell Proliferation [Cell divisions/cell] Average,[1]; 0.05 μM,0.49 Cell divisions/cell
same,IFN-gamma production [ng/ml] Average,[1]; 0.05 μM,0.06 ng/mL
same,IL-2 production [ng/ml] Average,[1]; 0.05 μM,0.13 ng/mL
same,TNF-alpha production [ng/ml] Average,[1]; 0.05 μM,0.26 ng/mL
same,CD25 expression [% positive cells] Average,[1]; 0.1 μM,50.80 % positive cells
same,Cell Proliferation [Cell divisions/cell] Average,[1]; 0.1 μM,0.58 Cell divisions/cell
same,IFN-gamma production [ng/ml] Average,[1]; 0.1 μM,0.10 ng/mL
same,IL-2 production [ng/ml] Average,[1]; 0.1 μM,0.21 ng/mL
same,TNF-alpha production [ng/ml] Average,[1]; 0.1 μM,0.42 ng/mL
same,CD25 expression [% positive cells] Average,[1]; 0.25 μM,59.10 % positive cells
same,Cell Proliferation [Cell divisions/cell] Average,[1]; 0.25 μM,0.84 Cell divisions/cell
same,IFN-gamma production [ng/ml] Average,[1]; 0.25 μM,0.23 ng/mL
same,IL-2 production [ng/ml] Average,[1]; 0.25 μM,0.56 ng/mL
same,TNF-alpha production [ng/ml] Average,[1]; 0.25 μM,0.71 ng/mL
same,CD25 expression [% positive cells] Average,[1]; 0.5 μM,69.50 % positive cells
same,Cell Proliferation [Cell divisions/cell] Average,[1]; 0.5 μM,1.03 Cell divisions/cell
same,IFN-gamma production [ng/ml] Average,[1]; 0.5 μM,0.40 ng/mL
same,IL-2 production [ng/ml] Average,[1]; 0.5 μM,1.00 ng/mL
same,TNF-alpha production [ng/ml] Average,[1]; 0.5 μM,1.12 ng/mL
same,CD25 expression [% positive cells] Average,[1]; 1 μM,79.50 % positive cells
same,Cell Proliferation [Cell divisions/cell] Average,[1]; 1 μM,1.20 Cell divisions/cell
same,IFN-gamma production [ng/ml] Average,[1]; 1 μM,0.64 ng/mL
same,IL-2 production [ng/ml] Average,[1]; 1 μM,2.50 ng/mL
same,TNF-alpha production [ng/ml] Average,[1]; 1 μM,1.65 ng/mL
same,CD25 expression [% positive cells] Average,[1]; 2.5 μM,77.71 % positive cells
same,Cell Proliferation [Cell divisions/cell] Average,[1]; 2.5 μM,1.35 Cell divisions/cell
same,IFN-gamma production [ng/ml] Average,[1]; 2.5 μM,1.46 ng/mL
same,IL-2 production [ng/ml] Average,[1]; 2.5 μM,7.48 ng/mL
same,TNF-alpha production [ng/ml] Average,[1]; 2.5 μM,4.11 ng/mL
same,CD25 expression [% positive cells] Average,[1]; 5 μM,79.53 % positive cells
same,Cell Proliferation [Cell divisions/cell] Average,[1]; 5 μM,1.40 Cell divisions/cell
same,IFN-gamma production [ng/ml] Average,[1]; 5 μM,2.22 ng/mL
same,IL-2 production [ng/ml] Average,[1]; 5 μM,11.11 ng/mL
same,TNF-alpha production [ng/ml] Average,[1]; 5 μM,5.47 ng/mL
same,CD25 expression [% positive cells] Average,[1]; 10 μM,79.64 % positive cells
same,Cell Proliferation [Cell divisions/cell] Average,[1]; 10 μM,1.38 Cell divisions/cell
same,IFN-gamma production [ng/ml] Average,[1]; 10 μM,2.81 ng/mL
same,IL-2 production [ng/ml] Average,[1]; 10 μM,13.62 ng/mL
same,TNF-alpha production [ng/ml] Average,[1]; 10 μM,7.19 ng/mL
same,CD25 expression [% positive cells] Average,[1]; 20 μM,75.14 % positive cells
same,Cell Proliferation [Cell divisions/cell] Average,[1]; 20 μM,1.33 Cell divisions/cell
same,IFN-gamma production [ng/ml] Average,[1]; 20 μM,3.29 ng/mL
same,IL-2 production [ng/ml] Average,[1]; 20 μM,15.11 ng/mL
same,TNF-alpha production [ng/ml] Average,[1]; 20 μM,9.31 ng/mL
same,T cell proliferation and expression of the surface activation marker CD25,[1]; anti-CD3 and anti-CD28,enhanced
same,"production of key cytokines (IL-2, IFN-gamma, TNF-alpha)",[1]; anti-CD3 and anti-CD28,strongly enhanced
same,CD25 expression [% positive cells] Average,[2]; 0.05 μM,61.07 % positive cells
same,Cell Proliferation [Cell divisions/cell] Average,[2]; 0.05 μM,1.57 Cell divisions/cell
same,IFN-gamma production [ng/ml] Average,[2]; 0.05 μM,0.14 ng/mL
same,IL-2 production [ng/ml] Average,[2]; 0.05 μM,1.17 ng/mL
same,TNF-alpha production [ng/ml] Average,[2]; 0.05 μM,1.09 ng/mL
same,CD25 expression [% positive cells] Average,[2]; 0.1 μM,64.24 % positive cells
same,Cell Proliferation [Cell divisions/cell] Average,[2]; 0.1 μM,1.72 Cell divisions/cell
same,IFN-gamma production [ng/ml] Average,[2]; 0.1 μM,0.22 ng/mL
same,IL-2 production [ng/ml] Average,[2]; 0.1 μM,2.32 ng/mL
same,TNF-alpha production [ng/ml] Average,[2]; 0.1 μM,1.55 ng/mL
same,CD25 expression [% positive cells] Average,[2]; 0.25 μM,68.81 % positive cells
same,Cell Proliferation [Cell divisions/cell] Average,[2]; 0.25 μM,1.84 Cell divisions/cell
same,IFN-gamma production [ng/ml] Average,[2]; 0.25 μM,0.31 ng/mL
same,IL-2 production [ng/ml] Average,[2]; 0.25 μM,4.01 ng/mL
same,TNF-alpha production [ng/ml] Average,[2]; 0.25 μM,2.16 ng/mL
same,CD25 expression [% positive cells] Average,[2]; 0.5 μM,67.89 % positive cells
same,Cell Proliferation [Cell divisions/cell] Average,[2]; 0.5 μM,1.88 Cell divisions/cell
same,IFN-gamma production [ng/ml] Average,[2]; 0.5 μM,0.43 ng/mL
same,IL-2 production [ng/ml] Average,[2]; 0.5 μM,7.64 ng/mL
same,TNF-alpha production [ng/ml] Average,[2]; 0.5 μM,3.13 ng/mL
same,CD25 expression [% positive cells] Average,[2]; 1 μM,71.00 % positive cells
same,Cell Proliferation [Cell divisions/cell] Average,[2]; 1 μM,1.94 Cell divisions/cell
same,IFN-gamma production [ng/ml] Average,[2]; 1 μM,0.61 ng/mL
same,IL-2 production [ng/ml] Average,[2]; 1 μM,11.30 ng/mL
same,TNF-alpha production [ng/ml] Average,[2]; 1 μM,4.04 ng/mL
same,CD25 expression [% positive cells] Average,[2]; 2.5 μM,71.35 % positive cells
same,Cell Proliferation [Cell divisions/cell] Average,[2]; 2.5 μM,1.93 Cell divisions/cell
same,IFN-gamma production [ng/ml] Average,[2]; 2.5 μM,0.79 ng/mL
same,IL-2 production [ng/ml] Average,[2]; 2.5 μM,16.77 ng/mL
same,TNF-alpha production [ng/ml] Average,[2]; 2.5 μM,5.37 ng/mL
same,CD25 expression [% positive cells] Average,[2]; 5 μM,71.76 % positive cells
same,Cell Proliferation [Cell divisions/cell] Average,[2]; 5 μM,1.91 Cell divisions/cell
same,IFN-gamma production [ng/ml] Average,[2]; 5 μM,0.91 ng/mL
same,IL-2 production [ng/ml] Average,[2]; 5 μM,17.30 ng/mL
same,TNF-alpha production [ng/ml] Average,[2]; 5 μM,6.68 ng/mL
same,CD25 expression [% positive cells] Average,[2]; 10 μM,71.90 % positive cells
same,Cell Proliferation [Cell divisions/cell] Average,[2]; 10 μM,1.83 Cell divisions/cell
same,IFN-gamma production [ng/ml] Average,[2]; 10 μM,1.15 ng/mL
same,IL-2 production [ng/ml] Average,[2]; 10 μM,19.63 ng/mL
same,TNF-alpha production [ng/ml] Average,[2]; 10 μM,7.50 ng/mL
same,CD25 expression [% positive cells] Average,[2]; 20 μM,69.70 % positive cells
same,Cell Proliferation [Cell divisions/cell] Average,[2]; 20 μM,1.68 Cell divisions/cell
same,IFN-gamma production [ng/ml] Average,[2]; 20 μM,1.32 ng/mL
same,IL-2 production [ng/ml] Average,[2]; 20 μM,19.92 ng/mL
same,TNF-alpha production [ng/ml] Average,[2]; 20 μM,7.13 ng/mL
same,"production of IL-2, IFN-gamma and TNF-alpha, CD25 expression and T cell proliferation",[2]; anti-CD3 and anti-CD28,strongly enhanced
same,CD8 T cell viability [Number of Living Cells] average,"[3]; 0.03 μM, CD8 cells & M21",22933.00 Number of Living Cells
same,CD8 T cell viability [Number of Living Cells] average,"[3]; 0.03 μM, CD8 only",23523.00 Number of Living Cells
same,CD8 T cell viability [Number of Living Cells] average,"[3]; 0.1 μM, CD8 cells & M21",23942.33 Number of Living Cells
same,CD8 T cell viability [Number of Living Cells] average,"[3]; 0.1 μM, CD8 only",24094.33 Number of Living Cells
same,CD8 T cell viability [Number of Living Cells] average,"[3]; 0.3 μM, CD8 cells & M21",23944.67 Number of Living Cells
same,CD8 T cell viability [Number of Living Cells] average,"[3]; 0.3 μM, CD8 only",23739.00 Number of Living Cells
same,CD8 T cell viability [Number of Living Cells] average,"[3]; 1 μM, CD8 cells & M21",24569.67 Number of Living Cells
same,CD8 T cell viability [Number of Living Cells] average,"[3]; 1 μM, CD8 only",23066.67 Number of Living Cells
same,CD8 T cell viability [Number of Living Cells] average,"[3]; 3 μM, CD8 cells & M21",24633.67 Number of Living Cells
same,CD8 T cell viability [Number of Living Cells] average,"[3]; 3 μM, CD8 only",23975.33 Number of Living Cells
same,CD8 T cell viability [Number of Living Cells] average,"[3]; 10 μM, CD8 cells & M21",24006.33 Number of Living Cells
same,CD8 T cell viability [Number of Living Cells] average,"[3]; 10 μM, CD8 only",25522.67 Number of Living Cells
same,number of CD8 T cells; number of tumor cells in the absence of CD8 T cells,[3]; CD8 / M21 cultures,neither the number of CD8 T cells nor the number of tumor cells in the absence of CD8 T cells was substantially modulated
